Several values for one entry are separate records, joined by “and”; a condition that tells them apart may be missing. Equal entries are not always repeated. Toxic doses and inconclusive results are not listed. No stated cut-off is given here; in the data, active means T/C of 150% or more; inactive means T/C below 125%.
Test system: L1210 leukemia ip in BDF1 mice, survival T/C
Assay: NCI In Vivo Anticancer Drug Screen. Data for tumor model L1210 Leukemia (intraperitoneal) in B6D2F1 (BDF1) mice
Conditions: endpoint: mean survival time, higher = longer survival
Summary of the method: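 Transplanted-tumor mice were given test agent; controls received vehicle only. Survival readings from the two groups were divided (treated over control).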

[1] = dose: 100.0 mg/kg/injection, schedule: Q04DX003 (ip), vehicle: Klucel (hydroxypropylcellulose) (HPC)
[2] = dose: 200.0 mg/kg/injection, schedule: Q04DX003 (ip), vehicle: Klucel (hydroxypropylcellulose) (HPC)
[3] = dose: 400.0 mg/kg/injection, schedule: Q04DX003 (ip), vehicle: Klucel (hydroxypropylcellulose) (HPC)
[4] = dose: 100.0 mg/kg/injection, schedule: Q01DX001 (ip), vehicle: saline
[5] = dose: 200.0 mg/kg/injection, schedule: Q01DX001 (ip), vehicle: saline
[6] = dose: 400.0 mg/kg/injection, schedule: Q01DX001 (ip), vehicle: saline
[7] = dose: 100.0 mg/kg/injection, schedule: Q04DX003 (ip), vehicle: saline with Tween-80
[8] = dose: 100.0 mg/kg/injection, schedule: Q01DX009 (ip), vehicle: Klucel (hydroxypropylcellulose) (HPC)
[9] = dose: 200.0 mg/kg/injection, schedule: Q01DX009 (ip), vehicle: Klucel (hydroxypropylcellulose) (HPC)
[10] = dose: 400.0 mg/kg/injection, schedule: Q01DX009 (ip), vehicle: Klucel (hydroxypropylcellulose) (HPC)
[11] = dose: 200.0 mg/kg/injection, schedule: Q04DX002 (ip), vehicle: Klucel (hydroxypropylcellulose) (HPC)
[12] = dose: 50.0 mg/kg/injection, schedule: Q01DX001 (ip), vehicle: saline
[13] = dose: 100.0 mg/kg/injection, schedule: Q04DX003 (ip), vehicle: saline
[14] = dose: 200.0 mg/kg/injection, schedule: Q04DX003 (ip), vehicle: saline

Measured: T/C

O=C1Nc2ccccc2/C1=C/c1cccnc1
inactive: dose: 50.0 mg/kg/injection, schedule: Q01DX Z (ip), vehicle: carboxymethylcellulose (CMC) 97 % of control | dose: 100.0 mg/kg/injection, schedule: Q01DX Z (ip), vehicle: carboxymethylcellulose (CMC) 111 % of control | dose: 200.0 mg/kg/injection, schedule: Q01DX Z (ip), vehicle: carboxymethylcellulose (CMC) 94 % of control | dose: 400.0 mg/kg/injection, schedule: Q01DX Z (ip), vehicle: carboxymethylcellulose (CMC) 95 % of control

O=C1OC(c2ccccc2)(C2(c3ccccc3)C=C(c3ccccc3)C(=O)O2)C=C1c1ccccc1 (stereo unspecified)
inactive: dose: 100.0 mg/kg/injection, schedule: Q01DX001 (ip), vehicle: Klucel (hydroxypropylcellulose) (HPC) 100 % of control | [1] 94 % of control | dose: 200.0 mg/kg/injection, schedule: Q01DX001 (ip), vehicle: Klucel (hydroxypropylcellulose) (HPC) 97 % of control | [2] 103 % of control | dose: 400.0 mg/kg/injection, schedule: Q01DX001 (ip), vehicle: Klucel (hydroxypropylcellulose) (HPC) 100 % of control | [3] 91 % of control

OCC1C2CC3C(C2)C13 (stereo unspecified)
inactive: dose: 100.0 mg/kg/injection, schedule: Q01DX001 (ip), vehicle: carboxymethylcellulose (CMC) 101 % of control | dose: 200.0 mg/kg/injection, schedule: Q01DX001 (ip), vehicle: carboxymethylcellulose (CMC) 93 % of control | dose: 400.0 mg/kg/injection, schedule: Q01DX001 (ip), vehicle: carboxymethylcellulose (CMC) 90 % of control

Nc1cc(C(=O)O)c2ccccc2c1
inactive: [4] 89 % of control | [5] 106 % of control | [6] 95 % of control

CC(=O)Oc1cccc(OC(=O)Nc2cccc(Cl)c2C)c1
inactive: dose: 100.0 mg/kg/injection, schedule: Q01DX001 (ip), vehicle: saline with Tween-80 93 % of control | dose: 100.0 mg/kg/injection, schedule: Q01DX009 (ip), vehicle: saline with Tween-80 104 % of control and 107 % of control | dose: 100.0 mg/kg/injection, schedule: Q04DX002 (ip), vehicle: saline with Tween-80 94 % of control and 104 % of control | [7] 88 % of control | dose: 200.0 mg/kg/injection, schedule: Q01DX001 (ip), vehicle: saline with Tween-80 100 % of control | dose: 200.0 mg/kg/injection, schedule: Q01DX009 (ip), vehicle: saline with Tween-80 96 % of control and 90 % of control | dose: 200.0 mg/kg/injection, schedule: Q04DX002 (ip), vehicle: saline with Tween-80 94 % of control and 101 % of control | dose: 200.0 mg/kg/injection, schedule: Q04DX003 (ip), vehicle: saline with Tween-80 86 % of control | dose: 400.0 mg/kg/injection, schedule: Q01DX001 (ip), vehicle: saline with Tween-80 93 % of control | dose: 400.0 mg/kg/injection, schedule: Q01DX009 (ip), vehicle: saline with Tween-80 93 % of control and 100 % of control | dose: 400.0 mg/kg/injection, schedule: Q04DX002 (ip), vehicle: saline with Tween-80 97 % of control and 104 % of control | dose: 400.0 mg/kg/injection, schedule: Q04DX003 (ip), vehicle: saline with Tween-80 89 % of control

Cc1ccc(N=Nc2ccc(C)cc2NC(=O)C2CC2)cc1
inactive: [8] 97 % of control | [9] 97 % of control | [10] 97 % of control

O=C1c2ccccc2C(=O)c2c1cccc2N1CCOCC1
inactive: [11] 98 % of control | dose: 400.0 mg/kg/injection, schedule: Q04DX002 (ip), vehicle: Klucel (hydroxypropylcellulose) (HPC) 112 % of control

CN(C)c1ncnc(N)n1
inactive: [8] 91 % of control | [1] 95 % of control | [9] 88 % of control | [2] 98 % of control | [10] 90 % of control | [3] 97 % of control

C=CCCCCCCCCC(=O)N/N=C/c1cccs1
inactive: [8] 95 % of control | [9] 100 % of control | [10] 105 % of control

CCOC(=O)c1ccc(NC(=O)Oc2ccc(SC)cc2)cc1
inactive: [8] 90 % of control | [9] 94 % of control | [10] 94 % of control

c1ccc(-c2cc3ccncc3c3ccccc23)cc1
inactive: dose: 100.0 mg/kg/injection, schedule: Q04DX003 (ip), vehicle: water 102 % of control | dose: 200.0 mg/kg/injection, schedule: Q04DX003 (ip), vehicle: water 96 % of control | dose: 400.0 mg/kg/injection, schedule: Q04DX003 (ip), vehicle: water 96 % of control

c1ccc(CNc2cnccn2)cc1
inactive: [4] 105 % of control | [5] 105 % of control

CC(C)(O)C1C2OC(=O)C1C1(O)CC3OC34C(=O)OC2C14C (stereo unspecified)
inactive: dose: 12.5 mg/kg/injection, schedule: Q04DX003 (ip), vehicle: Klucel (hydroxypropylcellulose) (HPC) 100 % of control | dose: 25.0 mg/kg/injection, schedule: Q04DX003 (ip), vehicle: Klucel (hydroxypropylcellulose) (HPC) 100 % of control | dose: 50.0 mg/kg/injection, schedule: Q04DX003 (ip), vehicle: Klucel (hydroxypropylcellulose) (HPC) 100 % of control | dose: 75.0 mg/kg/injection, schedule: Q01DX001 (ip), vehicle: other 102 % of control | dose: 150.0 mg/kg/injection, schedule: Q01DX001 (ip), vehicle: other 109 % of control

COc1cc2cc[n+](C)c(Cc3ccccc3)c2cc1OC
inactive: dose: 25.0 mg/kg/injection, schedule: Q01DX009 (ip), vehicle: saline with Tween-80 111 % of control | dose: 25.0 mg/kg/injection, schedule: Q04DX003 (ip), vehicle: saline with Tween-80 105 % of control | dose: 50.0 mg/kg/injection, schedule: Q01DX009 (ip), vehicle: saline with Tween-80 107 % of control | dose: 50.0 mg/kg/injection, schedule: Q04DX003 (ip), vehicle: saline with Tween-80 103 % of control | [7] 96 % of control

CCCP(C)(C)=S
inactive: dose: 100.0 mg/kg/injection, schedule: Q04DX002 (ip), vehicle: Klucel (hydroxypropylcellulose) (HPC) 90 % of control | [11] 90 % of control

CCC1C(=O)OCc2c1ccn(C)c2=O (stereo unspecified)
inactive: dose: 25.0 mg/kg/injection, schedule: Q01DX001 (ip), vehicle: saline 114 % of control | dose: 25.0 mg/kg/injection, schedule: Q04DX003 (ip), vehicle: saline 95 % of control | [12] 104 % of control | dose: 50.0 mg/kg/injection, schedule: Q04DX003 (ip), vehicle: saline 95 % of control | [4] 103 % of control | [13] 101 % of control | [5] 106 % of control | [14] 101 % of control

CC(=O)C(Cc1ccccc1)(c1ccccc1)c1ccccc1
inactive: [12] 103 % of control | [4] 103 % of control | [5] 97 % of control | [6] 97 % of control

CC1=CCS(=O)(=O)C1
inactive: [13] 103 % of control | [14] 101 % of control
